Measurements reported in patent US20090270404A1, “OXYMETHYLENE ARYL COMPOUNDS AND USES THEREOF” (Metabolex, Inc., priority 2008, published 2009).

Experiments:
[1] = system: C57Bl/6J mice; assay: Oral glucose tolerance test in mice (with sitagliptin); assay type: in vivo; details: glucose 2 g/kg, FIG. 1
Method: C57Bl/6J mice were fasted for 6 hours prior to drug administration. Blood glucose was measured after the 6 hour fast (T30 min), and animals were sorted into groups evenly matched for fasting glucose levels. At T30, drug suspension was administered to the mice by oral gavage. Glucose was administered at TO min at 2 g/kg. The administration volume was 5 mL/kg of body weight. Blood was sampled at TO, prior to glucose administration, then at 15, 30, 60, 90 and 120 min after glucose administration for measurement of glucose by glucometer. 10 mice were used for each dose group. The formulation of 5-Ethyl-2-{4-[4-(4-tetrazol-1-yl-phenoxymethyl)-thiazol-2-yl]-piperidin-1-yl}-pyrimidine and sitagliptin was 1% carboxymethylcellulose, 2% Tween 80 prepared in a manner essentially as described in Example 2. The formulation was a suspension and was continuously stirred during dosing of the animals.
Glucose levels were plotted against time and the incremental area under the curve (AUC) of the glucose excursion was determined from T0 to T120 using GraphPad Prism 5.1. Statistical significance of differences in AUC between compound treatment and vehicle was determined by non-parametric Kruskal-Wallis test with Dunn's post test. […] Statistical differences in the glucose levels at each time point during OGTT were determined by two way ANOVA with Bonferroni's post test. […]

[2] = system: mice; assay: Incretin secretion of mice, dose response on top of sitagliptin; assay type: in vivo; details: increasing dosages (1, 3, 10, 30 and 300 mg/kg) given in addition to sitapliptin at 100 mg/kg, 10 minutes after glucose, FIG. 5a
Method: 5-Ethyl-2-{4-[4-(4-tetrazol-1-yl-phenoxymethyl)-thiazol-2-yl]-piperidin-1-yl}-pyrimidine, sitagliptin, and vildagliptin were prepared as in Examples 1 and 2.
Mice were fasted for 6 h prior to drug administration. Blood glucose was measured after the 6 h fast (T30 min), and animals were sorted into 6 groups evenly matched for fasting glucose levels and body weight. At T30 min, drug suspension as prepared in Example 1 herein, was administered to the mice by oral gavage. All groups were given sitagliptin at 100 mg/kg, and Compound 1 was given at 1, 3, 10, 30 and 300 mg/kg. 100 mg/kg sitagliptin was chosen since this dose is greater than that required to achieve 80% DPP-IV inhibition in mice over the time period evaluated in this study. (Kim et al, 2005). Glucose (2 g/kg) was administered by oral gavage at T0. Animals were anesthetized and blood drawn by terminal cardiac puncture 10 minutes after glucose administration. To address the effects on incretin production, total GIP levels were measured. […] The DPP-IV inhibitor sitagliptin was co-administered to prevent breakdown of active GLP-1 by DPP-IV (Kim et al; 2005). Statistical significance of differences in GLP-1, GIP and glucose levels between compound+sitagliptin treatment and sitagliptin alone was determined by one way ANOVA with Dunnet's post test. Differences with a p value less than 0.05 were considered significant. […]

| Compound | incremental AUC of the glucose excursion T0 to T120 ([1]; compound only at 30 mg/kg oral gavage) | secretion of active GLP-1 [2] | incremental AUC of the glucose excursion T0 to T120 ([1]; sitagliptin alone at 10 mg/kg oral gavage) |
| --- | --- | --- | --- |
| CCc1cnc(N2CCC(c3nc(COc4ccc(-n5cnnn5)cc4)cs3)CC2)nc1 [5-Ethyl-2-{4-[4-(4-tetrazol-1-yl-phenoxymethyl)-thiazol-2-yl]-piperidin-1-yl}-pyrimidine] | approximately 3200 mg.min/dl | stimulated secretion of active GLP-1 |  |
| N[C@@H](CC(=O)N1CCn2c(nnc2C(F)(F)F)C1)Cc1cc(F)c(F)cc1F [sitagliption, sitagliptin, reference compound] |  |  | approximately 2800 mg.min/dl |
